Measurements reported in ChEMBL document CHEMBL1201862, “PubChem BioAssay data set” (2004).
Active and inactive are the calls of the source.

Assays:
[1] = rise of 4N DNA cells, HeLa – IC50, dose response (AID 1117351); assay type: functional, cell-based
[2] = blockers of HIV-1 ZM109 envelope-driven cell-cell fusion – HeLa effector, CEM target cells, luciferase, cherry-pick, dose response (AID 652058); assay type: functional, cell-based;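 further: luciferase signal from HIV-1 Env mediated cell-cell fusion of effector and target cells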
[3] = blockers of HIV-1 envelope-mediated cell-cell fusion – cherry-pick, dose response (AID 652057); assay type: functional, cell-based
[4] = HIV-1 AD8 envelope cell-cell fusion blockers – cherry-pick, dose response (AID 652062); assay type: functional, cell-based;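 further: luciferase signal from cell-cell fusion driven by HIV-1 clade B AD8 Env; potency is for inhibitors of fusion seen as a drop in luminescence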
[5] = off-target signal loss in HeLa-CEM21 co-culture – HeLa F-luc CTL cells, cherry-picked, counter-screen for HIV-1 Env fusion inhibitor project, dose response (AID 652040); assay type: functional, cell-based;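 further: potency for signal decrease marking cytotoxic or nonspecific inhibition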
cells [6] = assay type: functional, cell-based
[7] = target: T1, Nuclear receptor subfamily 0 group B member 1 (Homo sapiens, UniProt P51843); assay type: functional, cell-based;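 further: HEK293T cells transfected with SF-1 and DAX-1 plus StAR promoter luciferase reporter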
T1 sequence (P51843 whole entry): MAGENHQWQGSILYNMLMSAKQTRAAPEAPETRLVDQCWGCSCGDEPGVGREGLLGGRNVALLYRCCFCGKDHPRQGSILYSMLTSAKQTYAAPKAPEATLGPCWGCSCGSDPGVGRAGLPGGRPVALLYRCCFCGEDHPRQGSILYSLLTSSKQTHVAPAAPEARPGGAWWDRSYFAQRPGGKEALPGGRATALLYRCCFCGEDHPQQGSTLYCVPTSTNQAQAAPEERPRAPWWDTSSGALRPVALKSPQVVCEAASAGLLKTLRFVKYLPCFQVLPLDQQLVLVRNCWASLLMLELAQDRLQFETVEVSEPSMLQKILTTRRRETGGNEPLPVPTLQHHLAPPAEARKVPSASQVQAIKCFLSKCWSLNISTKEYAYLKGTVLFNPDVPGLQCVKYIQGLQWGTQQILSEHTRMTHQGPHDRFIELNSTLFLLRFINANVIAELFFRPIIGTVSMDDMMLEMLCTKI

Beta-galactosidase = Beta-galactosidase (Escherichia coli, UniProt Q8VNN2); experiment: Dose response counterscreen for EBI2 assay utilizing the enzyme, b-galactosidase.; assay type: functional
[8] = tested on: Streptococcus sp. 'group A'; experiment: Streptococcus pyogenes SK(-)GAS viability under kanamycin – luminescence, BacTiterGlo, confirmation, counter-screen for streptokinase expression inhibitor project, dose response (AID 1900); assay type: functional, organism-based
[9] = target: T2, Heat shock factor protein 1 (Mus musculus, UniProt P38532); experiment: decrease of HSF1-responsive luciferase luminescence – cell-based, NIH3T3, dose retest, confirmation (AID 2382); assay type: functional;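 further: NIH3T3 fibroblasts with HSF1-driven luciferase reporter stressed by proteasome inhibitor MG132; luminescence from HSF1-driven luciferase expression after 8 hours of MG132 stress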
T2 sequence (P38532 whole entry): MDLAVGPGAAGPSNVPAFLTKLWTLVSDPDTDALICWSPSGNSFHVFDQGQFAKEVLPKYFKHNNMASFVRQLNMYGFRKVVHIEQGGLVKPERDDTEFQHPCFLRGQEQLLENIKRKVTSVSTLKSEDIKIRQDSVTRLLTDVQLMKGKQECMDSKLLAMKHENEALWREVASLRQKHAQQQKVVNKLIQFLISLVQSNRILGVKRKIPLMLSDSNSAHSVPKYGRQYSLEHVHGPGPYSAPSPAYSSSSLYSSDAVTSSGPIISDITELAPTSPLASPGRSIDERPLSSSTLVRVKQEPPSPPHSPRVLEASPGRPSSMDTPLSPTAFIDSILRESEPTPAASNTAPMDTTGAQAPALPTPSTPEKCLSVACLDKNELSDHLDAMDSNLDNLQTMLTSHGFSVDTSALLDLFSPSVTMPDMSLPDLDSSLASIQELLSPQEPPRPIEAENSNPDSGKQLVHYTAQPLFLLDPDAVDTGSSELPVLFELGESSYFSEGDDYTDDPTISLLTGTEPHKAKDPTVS

[10] = HGIII-sPLA2 enzyme inhibition potency – biochemical, QFRET, IC50, dose response (AID 743457);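 further: green fluorescence rise as the enzyme cleaves BODIPY PC-A2 in liposomes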
Streptococcus = experiment: GAS UMAA2166 growth inhibition – luminescence, BacTiterGlo, counter-screen for streptokinase expression inhibitor project, dose response (AID 1915); assay type: functional, organism-based;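 further: potency for reduction of bacterial viability or growth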
cells [11] = assay type: functional, cell-based; remark: listed apart in the source
cells [12] = assay type: functional, cell-based; remark: listed apart in the source
[13] = target: T3, Trace amine-associated receptor 1 (Homo sapiens, UniProt Q96RJ0); experiment: Fluorescence-based cell-based high throughput dose response assay to identify agonists of the human trace amine associated receptor 1 (TAAR1).; assay type: functional
T3 sequence (Q96RJ0 whole entry): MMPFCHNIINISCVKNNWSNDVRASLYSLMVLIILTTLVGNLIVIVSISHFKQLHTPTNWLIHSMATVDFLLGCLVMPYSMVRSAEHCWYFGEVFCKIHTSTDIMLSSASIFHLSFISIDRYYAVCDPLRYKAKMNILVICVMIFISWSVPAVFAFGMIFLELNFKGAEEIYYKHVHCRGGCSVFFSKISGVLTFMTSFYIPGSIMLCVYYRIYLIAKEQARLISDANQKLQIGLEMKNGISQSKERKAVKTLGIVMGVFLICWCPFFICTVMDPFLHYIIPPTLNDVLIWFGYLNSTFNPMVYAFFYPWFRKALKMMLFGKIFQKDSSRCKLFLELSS

[14] = target: T3, Trace amine-associated receptor 1; experiment: Counterscreen for agonists of the human trace amine associated receptor 1 (hTAAR1): Fluorescence-based cell-based high throughput dose response assay to identify hTAAR1 agonist that also desensitize TAAR1 receptor response.; assay type: functional
[15] = HEK-293T viability loss after treatment – luminescence, T-cell screen hits, cytotoxicity control for TCR NF-kB inhibitor project, dose response (AID 489026); assay type: functional, cell-based;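 further: cells exposed to compound about 14 hours before the viability readout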
[16] = target: T4, COUP transcription factor 2 (Homo sapiens, UniProt P24468); experiment: Luminescence-based cell-based high throughput dose response assay to identify inhibitors of COUP-TFII (NR2F2).; assay type: functional;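 further: HEK293 cells transiently cotransfected with COUP-TFII expression vector and reporter; luciferase reporter luminescence driven by COUP-TFII from the pX2-168 reporter plasmid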
T4 sequence (P24468 whole entry): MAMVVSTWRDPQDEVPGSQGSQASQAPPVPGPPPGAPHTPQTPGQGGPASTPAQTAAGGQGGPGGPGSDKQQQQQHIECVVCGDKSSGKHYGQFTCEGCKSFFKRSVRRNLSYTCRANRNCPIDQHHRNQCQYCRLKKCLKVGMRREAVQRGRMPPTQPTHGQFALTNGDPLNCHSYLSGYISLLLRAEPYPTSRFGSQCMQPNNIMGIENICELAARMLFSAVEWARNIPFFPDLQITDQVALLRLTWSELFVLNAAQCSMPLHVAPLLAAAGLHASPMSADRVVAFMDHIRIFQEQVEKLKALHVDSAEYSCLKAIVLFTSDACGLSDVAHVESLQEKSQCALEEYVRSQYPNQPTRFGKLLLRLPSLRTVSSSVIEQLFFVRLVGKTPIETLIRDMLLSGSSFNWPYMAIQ

[17] = target: Protein-tyrosine kinase 2-beta (Homo sapiens, UniProt Q14289);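 further: potency of inhibitors of PYK2 kinase phosphorylation of poly-GT substrate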
Estrogen receptor beta = Estrogen receptor beta (Homo sapiens, UniProt Q92731);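 further: recombinant ER-beta bound to coactivator SRC1 peptide in presence of estradiol agonist; inhibitors block coactivator peptide binding and lower the FRET signal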
cells [18] = experiment: cells
Major prion protein = Major prion protein (Homo sapiens, UniProt P04156); assay type: functional, cell-based
[19] = Luminescence Cell-Based Dose Response HTS to Identify Inhibitors of 5'UTR Stem-Loop Driven Prion Protein mRNA Translation in H4 Neuroglioblastoma Cells. [Related pubchem assays: 1827 (Project Summary), 1813 (Primary HTS)]; assay type: functional
[20] = alpha-synuclein stem-loop luciferase translation blockers – H4 neuroglioma cells, luminescence, confirmation (AID 1988); assay type: functional, cell-based
[21] = luciferase reporter signal suppression in cells – H4 neuroglioma cells, luminescence, dose response (AID 1990); assay type: functional, cell-based

CC[C@@]1(O)C(=O)OCc2c1cc1n(c2=O)Cc2c-1nc1ccccc1c2/C=N/OC(C)(C)C
IC50 [1]: > 10 µM (inactive)

CC[C@@]12C(=O)N(c3cccc(Br)c3)C(=O)N1[C@H](c1ccc(OC)cc1)[C@@H]1C(=O)N(C(C)(C)C)C(=O)[C@@H]12
AC50 [2]: 0.581 µM (active) | AC50 [3]: 0.326 µM (active) | AC50 [4]: 0.627 µM (active) | AC50 [5]: 0.509 µM (active)

COc1ccc([C@@H]2[C@@H]3C(=O)N(C(C)(C)C)C(=O)[C@@H]3[C@]3(CC(C)C)C(=O)N(c4ccccc4)C(=O)N23)cc1
AC50 [2]: 1.13 µM (active) | AC50 [3]: 0.737 µM (active) | AC50 [4]: 1.88 µM (active) | AC50 [5]: 0.732 µM (active)

Cc1cc(C)n2nc(C(=O)Nc3ccc4c(c3)OCCO4)nc2n1
IC50 (cells [6]): > 67.5 µM (inactive) | IC50 [7]: > 67.5 µM (inactive)

Cc1ccsc1C1Nc2ccc3ncccc3c2C2=C1C(=O)CC(C)(C)C2 (stereo not drawn)
IC50 (Beta-galactosidase): > 80 µM (inactive)

COc1ccc(C(=O)NC(=S)NNC(=O)c2ccco2)cc1
EC50 [8]: 6.65 µM (active) | EC50 [9]: > 195 µM (not active) | IC50 [10]: > 122 µM (inactive) | EC50 (Streptococcus): 17.3 µM (active)

O=C(CCN1CCCC1Cc1ccccc1)c1ccc2c(c1)OCCO2 (stereo not drawn)
IC50 (cells [11]): > 29.9 µM (inactive) | EC50 (cells [12]): > 29.9 µM (inactive) | EC50 [13]: 0.3 µM (active) | IC50 [14]: > 9.97 µM (active)

Cc1cc(-n2c(C)cc(C(=O)CSc3ncnc4ccccc34)c2C)no1
IC50 [15]: > 80 µM (inactive) | IC50 [16]: 6.08 µM (active)

COc1ccc(-c2cc3ccccc3oc2=O)cc1NC(=O)c1ccc(Br)o1
IC50 [17]: 1.57 µM (active)

CCOC(=O)c1cccc(NC(=O)c2cccs2)c1
IC50 (Estrogen receptor beta): > 50 µM (not active)

COc1cc(C(=O)Nc2scc(-c3ccc(C)cc3)c2C(=O)O)cc(OC)c1OC
IC50 (cells [18]): > 138 µM (inactive) | IC50 (Major prion protein): 4.4 µM (active)

CN(C)CCN(C(=O)c1ccc2c(c1)CCCC2)c1nc2cc3c(cc2s1)OCCO3
IC50 (cells [6]): > 67.5 µM (inactive) | IC50 [7]: > 67.5 µM (inactive)

O=C1CC2(CCN(C(=O)COc3ccc(Cl)cc3)CC2)Oc2ccccc21
IC50 (Beta-galactosidase): > 80 µM (inactive)

Cc1nn(C)c(C)c1CN(C)C(=O)c1cnn2c1NC(c1ccccc1)CC2C(F)(F)F (stereo not drawn)
IC50 (Estrogen receptor beta): > 50 µM (not active) | EC50 [19]: 17.9 µM (active) | EC50 [20]: 20 µM (active) | EC50 [21]: > 120 µM (not active)
